The subject of experiment [1] is phosphorylation of S293 BCKDH. As to the kind of experiment: Phospho BCKDHA AlphaLISA in human skeletal myocytes. The conditions noted are these: 1 h, 60 minutes, maximal effect relative to BT2. The class given is cell-based. How it is done: Prior to conducting the assay, BCKDH antibodies (Bethyl A303-790A) were biotinylated using the ChromaLink™ One-Shot Antibody Biotinylation Kit B-9007-009K and phospho Ser293 BCKDHA antibodies (Bethyl A304-672A) were directly conjugated to AlphaLISA Acceptor Beads (custom conjugation performed by Perkin Elmer's Lance/Delfia Custom Services, Boston Mass.). Human skeletal myocytes (Gibco A11440) were plated in a 384 well plate at a density of 7500 live cells/well and grown in skeletal muscle growth media containing the media supplement and chick embryo extract (Promocell C-23060 and C-23160, MP92850145). After overnight incubation, media was removed, and BCKDK inhibitors were added in assay media (growth media diluted 10-fold in PBS). After 60 minutes, the media was removed, the cells were washed with PBS and lysed in 10 μL of buffer (Cell Signaling #9803) containing 2 nM biotinylated total BCKDH antibodies. Samples were incubated for 60 minutes, and 5 μL of AlphaLISA acceptor beads conjugated with phospho-S293 BCKDH antibodies were added 1× Alpha buffer. […] Fluorescence was emitted when the phospho and total BCKDH antibodies were within proximity, signifying phosphorylation of S293 BCKDH. Fluorescence was monitored on the Envision plate reader. The zero percent effect was determined from DMSO treatment and the maximal effect was assessed relative to the BCKDK inhibitor BT2. […]

In another experiment the target is T1, human BCKDK (Homo sapiens, UniProt O14874).
T1 construct: human BCKDK (residues 31-412 of the protein pre-processing); 6xHis (N, cleaved yes); MBP (N, cleaved yes); TEV protease site (ENLYFQG) (N, cleaved yes); made in house; host or cells: BL21(DE3) E. coli, co-expressed with GroEL-GroES
As to the kind of experiment: In Vitro FRET (TR-FRET) BCKDK activity assay, phosphorylation of BCKDHE1α-E2 fusion substrate. The class given is biochemical. The conditions noted are these: geometric mean, two significant figures; 15 μM ATP. How it is done:
BCKDK protein was generated using a pET vector containing from N- to C-terminus: 6×His, MBP, a TEV protease site (ENLYFQG), a biotin acceptor peptide ([…]), and human BCKDK (residues 31-412 of the protein pre-processing). Protein was co-expressed with GroEL-GroES in BL21(DE3) E. coli in LB media, and protein production was induced with 0.5 mM IPTG and 0.5 mg/mL L-arabinose at an OD600 of 1 and grown for 16 h at 26° C. Bacteria were lysed using a Microfluidizer in 100 mM potassium phosphate pH 7.5, 500 mM NaCl, 0.1 mM EDTA, 1% Tween-20, 0.25% Triton X-100, 10% glycerol, 1 mM DTT, and protease inhibitors. MBP-tagged protein was purified by affinity chromatography using amylose resin, and MBP was removed from BCKDK by TEV protease incubation followed by gel filtration chromatography in 50 mM HEPES pH 7.5, 500 mM NaCl, 300 mM L-Arginine, 2 mM MgCl2, 1 mM DTT, and 10% glycerol.
A pET vector containing E. coli LplA was expressed in BL21(DE3) E. coli in LB media, and protein production was induced with 0.75 mM IPTG at an OD600 of 1 and grown for 16 h at 30° C. Bacteria were lysed using a Microfluidizer in 50 mM sodium phosphate buffer pH 7.5, 350 mM NaCl, 1.5 mM MgCl2, and 1 mM DTT. LplA protein was precipitated from clarified lysate with 1 M ammonium sulfate and further purified by gel filtration chromatography in 50 mM sodium phosphate pH 7.5, 350 mM NaCl, 1.5 mM MgCl2, 1 mM DTT, and 10% glycerol.
The BCKDHE1α-E2 fusion substrate was cloned into a pET vector and contained from N- to C-terminus: the lipoyl binding domain of E2 (residues 62-160 pre-processing), a TEV protease site (LENLYFQG), residues 331-345 (pre-processing) from E1α, and 6×His (Tso, S. C. et al., J Biol Chem 2014, 289 (30), 20583-20593). The fusion substrate was expressed in BL21(DE3) E. coli in LB media, and protein production was induced with 0.75 mM IPTG at an OD600 of 1 and grown for 16 h at 30° C. Bacteria were lysed using a Microfluidizer in 50 mM sodium phosphate pH 7.5, 350 mM NaCl, 10 mM imidazole, 10% glycerol, 1 mM DTT, and protease inhibitors. […] For lipoylation, fusion substrate was incubated with LplA at a 10:1 (substrate:LplA) ratio in 20 mM sodium phosphate pH 7.4, 6 mM MgCl2, 4 mM ATP, 2 mM DTT, 3 mM DL-6,8-thioctic acid at 37° C. The reaction was monitored using an Agilent 6530 Q-TOF coupled to an Agilent 1290 UPLC. The final lipoylated fusion substrate was purified by gel filtration chromatography in 50 mM HEPES pH 7.5, 350 mM NaCl, 1.5 mM MgCl2, 1 mM DTT, 10% glycerol.
BCKDK activity was monitored by phosphorylation of a HIS-tagged fusion BCKDHE1α-E2 substrate protein as described above and was detected using a time resolved-fluorescence resonance energy transfer (TR-FRET) assay system. Compounds were spotted into a 384 well plate, and purified human BCKDK protein was added to the plated compound. After incubation, the LBD-linker-E1 phosphorylation sequence was added in the presence of 15 μM ATP. The reaction was terminated with EDTA. Phosphorylated substrate was recognized by the addition of rabbit anti-E1 phospho Ser293 antibodies (Bethyl Laboratories—A304-672A), and the TR-FRET signal was developed by addition of anti-HIS donor molecules (Europium; Perkin Elmer—AD0205, AD0110, AD0111) and anti-Rabbit acceptor molecules (Ulight; Perkin Elmer—TRF502D, TRF502M, TRF502R). Recognition of phosphorylated E1 brought donor and acceptor molecules into close proximity, and excitation at 320 nm caused energy transfer from the Europium donor to the Ulight acceptor dye, which in turn generated light at 665 nm. Signal intensity was proportional to the level of BCKDK-mediated substrate phosphorylation. Reactions were normalized to zero percent effect with DMSO and one hundred percent effect with 600 μM Radicicol, a known BCKDK inhibitor. IC50 curves were generated using ABASE software (IDBS, Boston Mass.).
(Time-resolved FRET reads energy transfer from a long-lived donor to a nearby acceptor.)

Experiment [2] has as its system Dahl salt sensitive male rats. As to the kind of experiment: Heart Failure Rat Model, high salt diet. The class given is in vivo. The protocol:
Dahl salt sensitive male rats (Charles River strain SS/JrHsdMcwiCrl) were fed control diet or 6% high salt diet (iD03121701-AIN-76a rodent diet with added 6% NaCl) for 21 weeks in total. At week 5, the high salt diet-fed rats were dosed PO with 100 mg/kg BT2 or vehicle once daily for the last 16 weeks of study. Echocardiography was performed at week 18 (myocardial performance index (MPI): control diet 0.567±0.034, high salt+vehicle 0.810±0.039, high salt+BT2 0.660±0.030; Isovolumic relaxation time (IVRT): control diet 23.154±0.60 ms, high salt+vehicle 36.507±2.20 ms, high salt+BT2 31.605±1.78 ms; Intraventricular septal thickness at diastole (IVDd): control 2.03±0.088 mm, high salt+vehicle 2.877±0.110 mm, high salt+BT2 2.489±0.089 mm). NT-pro-BNP (MSD K153JKD; control […], high salt+vehicle 1003.0±200.8 μg/mL, high salt+BT2 503.4±84.96 μg/mL), and proANP (MSD K153MBD; control 33.50±5.4 ng/mL, high salt 65.19±8.3 ng/mL, high salt+BT2 38.81±7.0 ng/mL) levels were measured in plasma using MSD assays at the terminal time point. Heart weights were measured at euthanasia and normalized to tibia length (heart/tibia control 0.033±0.001 g/mm; high salt+vehicle 0.042±0.001 g/mm, high salt+BT2 0.038±0.001 g/mm).

In experiment [3] the test system is Mice fed 60% high fat diet. As to the kind of experiment: Diabetic Animal Model: fasting glucose and oral glucose tolerance test. Format: in vivo. As to conditions: for fasting plasma glucose levels: mean±SEM, vehicle 185±18; for Area under the curve for the glucose tolerance test as percent of vehicle treated group: 1 g/kg dextrose, vehicle 100.0±7. The protocol: Mice fed 60% high fat diet (Research Diets 12492) were dosed PO with Example 1 for one day, fasted overnight, and blood glucose was measured with an alpha track glucometer. The animals were dosed again PO with Example 1 the next morning, and one hour later, blood glucose was measured again immediately using an alpha track glucometer (Zoetis, Parsippany, N.J.) to assess fasting glucose levels prior to oral gavage of 1 g/kg dextrose. Blood glucose was measured 15, 30, 60, and 120 minutes after the gavage, and the data were plotted and analyzed as area under the curve using GraphPad Prism 8.0 (GraphPad Software, La Jolla, Calif.). For animals that were dosed with vehicle or Example 1 as above, mean±SEM fasting plasma glucose levels were 185±18 (vehicle, n=7), 194±14 (3 mg/kg, n=9), 160±11 (10 mg/kg, n=10), 136±9 mg/dL (30 mg/kg, n=9). Area under the curve for the glucose tolerance test as percent of vehicle treated group was 100.0±7 (vehicle, n=7), 106±9 (3 mg/kg, n=9), 99±2 (10 mg/kg, n=10), 72±4 (30 mg/kg, n=9).

For the compound `Cc1cc(Cl)sc1-c1nnn[nH]1` [Example 9, 5-(5-Chloro-3-methylthiophen-2-yl)-1H-tetrazole], the results for the 50% inhibitory concentration (IC50) (in experiment [1]; at human BCKDK) were 11 ± 0.87 µM and 1.4 µM, respectively.
With `O=C(O)c1sc2cc(Cl)ccc2c1Cl` [BT2], the “Heart weight normalized to tibia length (heart/tibia)” value in experiment [2] (at euthanasia, 100 mg/kg PO once daily, control 0.033±0.001, high salt+vehicle 0.042±0.001) is recorded as 0.038±0.001 g/mm. Besides, the “Intraventricular septal thickness at diastole (IVDd)” value in experiment [2] (echocardiography week 18, 100 mg/kg PO once daily, control 2.03±0.088, high salt+vehicle 2.877±0.110) was 2.489±0.089 mm. Also, in experiment [2] (echocardiography week 18, 100 mg/kg PO once daily, control diet 0.567±0.034, high salt+vehicle 0.810±0.039), the “myocardial performance index (MPI)” value amounted to 0.660±0.030. In addition, the “Isovolumic relaxation time (IVRT)” value in experiment [2] (echocardiography week 18, 100 mg/kg PO once daily, control diet 23.154±0.60, high salt+vehicle 36.507±2.20) came to 31.605 ± 1.78 ms. Moreover, the “proANP level in plasma” value in experiment [2] (terminal time point, 100 mg/kg PO once daily, control 33.50±5.4, high salt 65.19±8.3) came to 38.81 ± 7.0 ng/mL.
Regarding `Cc1c(Br)csc1-c1nnn[nH]1` [Example 1, 5-(4-Bromo-3-methylthiophen-2-yl)-1H-tetrazole], the “fasting plasma glucose levels” value in experiment [3] (3 mg/kg PO, n=9) is 194 ± 14 mg/dL; in experiment [3] (10 mg/kg PO, n=10), 160 ± 11 mg/dL; in experiment [3] (30 mg/kg PO, n=9), 136 ± 9 mg/dL. Further, the “Area under the curve for the glucose tolerance test as percent of vehicle treated group” value is 106±9% of vehicle treated group in experiment [3] (3 mg/kg PO, n=9); 99±2% of vehicle treated group in experiment [3] (10 mg/kg PO, n=10); 72±4% of vehicle treated group in experiment [3] (30 mg/kg PO, n=9). In addition, the IC50 (commonly the point on the concentration scale where inhibition reaches its midpoint) in experiment [1] is 18 ± 2.3 µM; against human BCKDK, 1.9 µM.

Values taken from patent publication US20220363673A1, “5-(Thiophen-2-YL)-1 H-Tetrazole Derivative as BCKDK Inhibitors Useful for Treating Various Diseases” (Pfizer Inc., priority 2019, published 2022).
